Tests used:
[1] = Cytotoxicity by the MTT method, BEL-7402; format: cell-based; conditions: human, BEL-7042 (printed in table; BEL-7402 in text) cells, 36 h incubation with compound
Method: (§1) The cytotoxic activity of compounds 1–3 and 5–8 against human cervical cancer cell lines (Hela), human hepatic carcinoma cell lines (BEL-7402), leukemia cell lines (K562), and human gastric cell lines (SGC-7901) was assayed by the MTT method ([Mosmann, 1983]; [Wang et al., 2013]). These cell lines were purchased from Shang Hai Cell Bank of Chinese Academy of Sciences. Hela, BEL-7402, K562, and SGC-7901 cell lines were cultured in RPMI-1640 with 10% FBS under a humidified atmosphere of 5% CO2 and 95% air at 37°C, and 198 μl of the cell suspension was plated in 96-well microtiter plates. After being incubated for 24 h, 2 μl of the test solutions in DMSO was added to each well and further incubated for 36 h. The MTT solution (20 μl, 5 mg/ml in IPMI-1640 medium) was then added to each well and further incubated for 4 h. Finally, the medium containing MTT (150 μl) was gently replaced by DMSO and pipetted to dissolve any formazan crystals formed. Absorbance was then determined on a Multiskan FC photometric microplate reader (Thermo Fisher Scientific) at 570 nm. Adriamycin was used as the positive control drug.

[2] = Cytotoxicity by the MTT method, SGC-7901; format: cell-based; conditions: human, SGC-7901 cells (human gastric cell line), 36 h incubation with compound
Method: as §1

[3] = Cytotoxicity by the MTT method, Hela; format: cell-based; conditions: human, HeLa cells (human cervical cancer cell line), 36 h incubation with compound
Method: as §1

[4] = Cytotoxicity by the MTT method, K562; format: cell-based; conditions: human, K562 cells (leukemia cell line), 36 h incubation with compound
Method: as §1

[5] = target: α-glucosidase (from baker's yeast); experiment: α-Glycosidase inhibitory activity (p-nitrophenyl α-D-glucopyranoside substrate); format: biochemical; conditions: α-glucosidase 0.2 U/ml, phosphate buffer pH 6.8, pNPG substrate, 37°C 15 min, absorbance 405 nm
Method: A mixture including 25 μl of different compounds (final concentrations of 0.0625, 0.125, 0.25, 0.5, and 1.0 mM), 25 μl of α-glucosidase (0.2 U/ml, from baker’s yeast, Sigma), and 175 μl phosphate buffer (pH 6.8) was left to stand for 10 min at room temperature in a 96-well plate, and then 25 μl of 23.2 mM p-nitrophenyl α-D-glucopyranoside (Sigma-Aldrich) was added and further incubated at 37°C for 15 min. Finally, the absorbance was measured at 405 nm to determine the amount of p-nitrophenol cleaved by the enzyme using a Synergy H1 Hybrid Multi-Mode Microplate Reader (BioTek Instruments, Inc.). The control was prepared by adding phosphate buffer instead of the sample in the same way as the test. The blank was prepared by adding phosphate buffer instead of α-glucosidase using the same method.

With `COc1cccc2c1C(=O)c1c(O)c3c(c(O)c1C2=O)C[C@@](O)(C(=O)CO)C[C@@H]3O[C@H]1C[C@H](N)[C@H](O)[C@H](C)O1` [Adriamycin, reference compound] the IC50 at 36 h [1] was 0.47 ± 0.01 µM, the IC50 at 36 h [2] was 0.22 ± 0.01 µM and the IC50 at 36 h [3] was 0.28 ± 0.01 µM. For the same compound, the IC50 at 36 h [4] was 0.1 ± 0.01 µM.

Work on `CC(O)(CCC(=O)O)CCc1cc(C(=O)O)ccc1O` (stereo not drawn) [Compound 1, cladoslide A] yielded an IC50 at 36 h [1] of over 100 µM, an IC50 at 36 h [2] of over 100 µM and an IC50 [5] of 320 ± 10 µM. The IC50 at 36 h [3] was over 100 µM and the IC50 at 36 h [4] was 13.1 ± 0.08 µM.

`COC(=O)CCC(C)(O)CCc1cc(C(=O)O)ccc1O` (stereo not drawn) [Compound 2, cladoslide B] gave an IC50 at 36 h [1] of over 100 µM, an IC50 at 36 h [2] of over 100 µM and an IC50 [5] of over 1000 µM. It also gave an IC50 at 36 h [3] of over 100 µM and an IC50 at 36 h [4] of over 100 µM.

Compound `CC(C)C[C@H](NC(=O)c1nc(C(=O)O)cc2c1[nH]c1ccccc12)C(=O)O` [Compound 3, cladospomine] has an IC50 at 36 h [1] of over 100 µM, an IC50 at 36 h [2] of over 100 µM and an IC50 [5] of over 1000 µM. It also gave an IC50 at 36 h [3] of over 100 µM and an IC50 at 36 h [4] of over 100 µM.

Compound `CC(=O)NCC(=O)c1c[nH]c2ccccc12` [Compound 5, N-acetyl-β-oxotryptamine] has an IC50 at 36 h [1] of over 100 µM, an IC50 at 36 h [2] of over 100 µM and an IC50 [5] of 170 ± 10 µM. The IC50 at 36 h [3] was over 100 µM and the IC50 at 36 h [4] was over 100 µM.

In the case of `C[C@@H](O)CCCCC[C@H](O)[C@@H]1C=CC(=O)O1` [Compound 6, (4S,5S,11R)-iso-cladospolide B], the IC50 at 36 h [1] is reported as over 100 µM, the IC50 at 36 h [2] is reported as over 100 µM and the IC50 [5] is reported as over 1000 µM. It also gave an IC50 at 36 h [3] of over 100 µM and an IC50 at 36 h [4] of over 100 µM.

Compound `C[C@H](O)CCCCC[C@H](O)[C@@H]1C=CC(=O)O1` [Compound 7, (4S,5S,11S)-iso-cladospolide B] has an IC50 at 36 h [1] of over 100 µM, an IC50 at 36 h [2] of over 100 µM and an IC50 [5] of over 1000 µM. It also gave an IC50 at 36 h [3] of over 100 µM and an IC50 at 36 h [4] of over 100 µM.

For `C[C@@H](O)CCCCC[C@H](O)[C@H]1C=CC(=O)O1` [Compound 8, (4R,5S,11R)-iso-cladospolide B], the IC50 at 36 h [1] was over 100 µM, the IC50 at 36 h [2] was over 100 µM and the IC50 [5] was over 1000 µM. It also gave an IC50 at 36 h [3] of over 100 µM and an IC50 at 36 h [4] of over 100 µM.

Reference: publication PMC8717711, “Metabolites From the Mangrove-Derived Fungus Cladosporium sp. HNWSW-1” (Frontiers in Chemistry, 2021)
